Where a SMILES comes first, the peptide text is derived from it. Bridges are numbered along the chain shown (N, C = ends). [ ]: non-standard residue; d: D form. The star is where a group is joined. Pentanoyl(5-guanidino) = NC(N)=NCCCCC(=O)*; dNle = CCCC[C@@H](N)C(=O)O; Nle = CCCC[C@H](N)C(=O)O; Abu = CC[C@H](N)C(=O)O; Ava = NCCCCC(=O)O
Legend:
human MCH-2R = human MCH-2R (Homo sapiens, UniProt Q969V1); assay: Aequorin bioluminescence functional assay, MCH-2R agonist activity; conditions: for MCH-2R Agonist Activation %: 293-AEQ17 cells expressing human MCH-2R
human MCH-2R, sequence (Q969V1 whole entry): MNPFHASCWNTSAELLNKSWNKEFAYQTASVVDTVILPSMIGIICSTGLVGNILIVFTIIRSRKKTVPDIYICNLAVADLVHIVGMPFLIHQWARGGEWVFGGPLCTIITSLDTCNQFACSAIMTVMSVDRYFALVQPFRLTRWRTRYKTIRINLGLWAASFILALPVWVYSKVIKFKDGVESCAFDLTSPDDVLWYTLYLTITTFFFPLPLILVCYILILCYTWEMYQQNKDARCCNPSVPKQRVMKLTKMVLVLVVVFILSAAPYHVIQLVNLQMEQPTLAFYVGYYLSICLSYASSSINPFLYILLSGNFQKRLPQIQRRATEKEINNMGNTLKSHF

rat MCH-1R [1] = biological target: T1, rat MCH-1R (Rattus norvegicus, UniProt P97639); assay: Aequorin bioluminescence functional assay, MCH-1R agonist activity; conditions: for MCH-1R Agonist Activation %: 293-AEQ17 cells expressing rat MCH-1R
T1 sequence (P97639 whole entry): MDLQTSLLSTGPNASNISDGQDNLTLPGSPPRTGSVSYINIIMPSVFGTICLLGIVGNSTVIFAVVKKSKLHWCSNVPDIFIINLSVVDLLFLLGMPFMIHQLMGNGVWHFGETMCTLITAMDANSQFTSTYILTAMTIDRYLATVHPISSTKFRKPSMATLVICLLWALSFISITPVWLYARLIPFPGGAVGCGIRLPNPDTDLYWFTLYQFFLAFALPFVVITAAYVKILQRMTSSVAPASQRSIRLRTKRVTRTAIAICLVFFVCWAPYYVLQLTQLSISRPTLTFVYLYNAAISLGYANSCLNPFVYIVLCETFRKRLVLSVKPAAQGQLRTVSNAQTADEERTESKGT

rat MCH-1R [2] = biological target: T1, rat MCH-1R; assay: Antagonist assay, 293-AEQ17 cells expressing rat MCH-1R; assay type: cell-based; set-up: expressed in transfected cells; host or cells: 293-AEQ17 (aequorin-expressing HEK-293 reporter line); conditions: for Kb: determined per Trends in Pharmacol. Sci. 14:237-239, 1993
Protocol: Cells were grown in DMEM (high glucose) supplemented with 10% FBS (Hyclone), 500 μg/ml G418, 200 μg/ml hygromycin and 25 mM HEPES in T75 flasks.
The assay itself involved charging apoaequorin with coelenterazine cp(Molecular Probes, C-14260) and was performed as follows:
1. Confluent T75 flasks are rinsed 1× with 12 ml Hams F12 medium+300 μM glutathione+0.1% FBS.
2. The cells were charged by adding 8 ml Hams F12+0.1% FBS+300 μM glutathione+10 μM coelenterazine, incubate at 37° C. for 1 hour.
4. ECB (6 ml) is added to the flask and the cells are dissociated with a rubber-tipped scraper, centrifuged for 5 minutes at 2500 rpm and the cell pellet resuspended in 5 ml ECB. The cells are counted and diluted to 5×10^5/ml.
Binding and agonist activity at the MCH-1R and MCH-2R was determined as described in Examples 2 and 3. Antagonist IC50 was determined as described in Example 4. Kb was determined using the procedures described in Trends in Pharmacol. Sci. 14:237-239, 1993.

human MCH-1R = human MCH-1R (Homo sapiens, UniProt Q99705); assay: MCH-1R binding assay, inhibition of [125I]-human MCH binding to membranes
human MCH-1R, sequence (Q99705 whole entry): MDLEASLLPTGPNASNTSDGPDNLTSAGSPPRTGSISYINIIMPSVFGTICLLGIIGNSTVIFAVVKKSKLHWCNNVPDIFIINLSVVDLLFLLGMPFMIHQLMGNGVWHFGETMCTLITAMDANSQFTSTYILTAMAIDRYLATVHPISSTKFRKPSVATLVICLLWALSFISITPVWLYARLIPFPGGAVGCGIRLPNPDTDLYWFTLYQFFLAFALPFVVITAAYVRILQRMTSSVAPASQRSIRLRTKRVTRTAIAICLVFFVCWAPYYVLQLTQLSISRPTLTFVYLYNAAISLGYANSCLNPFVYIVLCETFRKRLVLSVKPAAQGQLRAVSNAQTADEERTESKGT

| EC50 (human MCH-2R) | MCH-2R Agonist Activation % (human MCH-2R) | EC50 (rat MCH-1R [1]) | MCH-1R Agonist Activation % (rat MCH-1R [1]) | IC50 (rat MCH-1R [2]) | Kb (rat MCH-1R [2]) | IC50 (human MCH-1R) | SMILES |
| --- | --- | --- | --- | --- | --- | --- | --- |
| > 10000 nM | 38% | > 10000 nM | 3.8% | 75.7 nM | 32.9 nM | 290 nM | CSCC[C@@H]1NC(=O)[C@@H](NC(=O)CCCCNC(=N)N)CSSC[C@@H](C(=O)O)NC(=O)CCCCNC(=O)CCCCNC(=O)[C@H](Cc2ccc(O)cc2)NC(=O)[C@H](C(C)C)NC(=O)[C@H](CCCNC(=N)N)NC(=O)CNC(=O)[C@H](CC(C)C)NC1=O [SEQ. ID. NO. 18] |
| > 10000 nM | 91% | > 10000 nM | 3% | 56 nM | 24 nM | 62 nM | CSCC[C@@H]1NC(=O)[C@@H](NC(=O)CCCCNC(=N)N)CSSC[C@@H](C(N)=O)NC(=O)CCCCNC(=O)CCCCNC(=O)[C@H](Cc2ccc(O)cc2)NC(=O)[C@H](C(C)C)NC(=O)[C@H](CCCNC(=N)N)NC(=O)CCCCNC(=O)CCCCNC1=O [SEQ. ID. NO. 32] ({Pentanoyl(5-guanidino)}-CM[Ava][Ava]RVY[Ava][Ava]C-NH2; disulfide 1-10; C-terminus assumed) |
| > 10000 nM | 38% | > 10000 nM | 3.4% | 4.7 nM | 2 nM | 29 nM | CSCC[C@@H]1NC(=O)[C@@H](NC(=O)CCCCNC(=N)N)CSSC[C@@H](C(N)=O)NC(=O)CCCCNC(=O)CCCCNC(=O)[C@H](Cc2ccc(O)cc2)NC(=O)[C@H](C)NC(=O)[C@H](CCCNC(=N)N)NC(=O)CNC(=O)[C@H](CC(C)C)NC1=O [SEQ. ID. NO. 20] ({Pentanoyl(5-guanidino)}-CMLGRAY[Ava][Ava]C-NH2; disulfide 1-10; C-terminus assumed) |
| > 10000 nM | 28% | > 10000 nM | 2% | 13.8 nM | 6 nM | 135 nM | CSCC[C@@H]1NC(=O)[C@@H](NC(=O)[C@@H](CCCNC(=N)N)NC(C)=O)CSSC[C@@H](C(N)=O)NC(=O)CCCCNC(=O)CCCCNC(=O)[C@H](Cc2ccc(O)cc2)NC(=O)[C@H](C(C)C)NC(=O)[C@H](CCCNC(=N)N)NC(=O)CCCCNC(=O)CCCCNC1=O [SEQ. ID. NO. 33] (Ac-[dR]CM[Ava][Ava]RVY[Ava][Ava]C-NH2; disulfide 2-11 (inferred); C-terminus assumed) |
| > 10000 nM | 45% | > 10000 nM |  | 67 nM | 29 nM | 140 nM | CC(C)C[C@@H]1NC(=O)[C@H](C)NC(=O)[C@@H](NC(=O)CCCCNC(=N)N)CSSC[C@@H](C(N)=O)NC(=O)CCCCNC(=O)CCCCNC(=O)[C@H](Cc2ccc(O)cc2)NC(=O)[C@H](C(C)C)NC(=O)[C@H](CCCNC(=N)N)NC(=O)CNC1=O [SEQ. ID. NO. 19] ({Pentanoyl(5-guanidino)}-CALGRVY[Ava][Ava]C-NH2; disulfide 1-10 (inferred); C-terminus assumed) |
| > 10000 nM | 35% | > 10000 nM | 3.5% | 6.84 nM | 3 nM | 49 nM | CSCC[C@@H]1NC(=O)[C@@H](NC(=O)CCCCNC(=N)N)CSSC[C@@H](C(N)=O)NC(=O)CCCNC(=O)CCCNC(=O)[C@H](Cc2ccc(O)cc2)NC(=O)[C@H](C(C)C)NC(=O)[C@H](CCCNC(=N)N)NC(=O)CNC(=O)[C@H](CC(C)C)NC1=O [SEQ. ID. NO. 13] |
| > 10000 nM | 28% | > 10000 nM | 0.1% |  |  | > 1000 nM | C[C@@H]1NC(=O)[C@@H](NC(=O)CCCCNC(=N)N)CSSC[C@@H](C(=O)O)NC(=O)CCCCNC(=O)CCCCNC(=O)[C@H](Cc2ccc(O)cc2)NC(=O)[C@H](C)NC(=O)[C@H](CCCNC(=N)N)NC(=O)CCCCNC(=O)CCCCNC1=O [SEQ. ID. NO. 34] ({Pentanoyl(5-guanidino)}-CA[Ava][Ava]RAY[Ava][Ava]C-OH; disulfide 1-10) |
| > 10000 nM | 91% | 544 nM | 43% |  |  | 223 nM | CCCC[C@H]1NC(=O)[C@H](CC(C)C)NC(=O)[C@H](CCSC)NC(=O)[C@@H](NC(=O)[C@H](CCCNC(=N)N)NC(C)=O)CSSC[C@@H](C(N)=O)NC(=O)CCCCNC(=O)CCCCNC(=O)[C@H](Cc2ccc(O)cc2)NC(=O)[C@H](C(C)C)NC(=O)[C@H](CCCNC(=N)N)NC1=O [SEQ. ID. NO. 26] (Ac-RCML[dNle]RVY[Ava][Ava]C-NH2; disulfide 2-11; C-terminus assumed) |
| > 10000 nM | 25% | > 10000 nM | 0.1% |  |  | 66 nM | CSCC[C@@H]1NC(=O)[C@H](NC(=O)CCCCNC(=N)N)CSSC[C@@H](C(N)=O)NC(=O)CCCCNC(=O)CCCCNC(=O)[C@H](Cc2ccc(O)cc2)NC(=O)[C@H](C(C)C)NC(=O)[C@H](CCCNC(=N)N)NC(=O)CNC(=O)[C@H](CC(C)C)NC1=O [SEQ. ID. NO. 25] |
| > 10000 nM | 59% | > 10000 nM | 3% | 13.8 nM | 6 nM | 11 nM | CCCC[C@@H]1NC(=O)[C@@H](NC(=O)CCCCNC(=N)N)CSSC[C@@H](C(N)=O)NC(=O)CCCCNC(=O)CCCCNC(=O)[C@H](Cc2ccc(O)cc2)NC(=O)[C@H](C(C)C)NC(=O)[C@H](CCCNC(=N)N)NC(=O)CNC(=O)[C@H](CC(C)C)NC1=O [SEQ. ID. NO. 16] ({Pentanoyl(5-guanidino)}-C[Nle]LGRVY[Ava][Ava]C-NH2; disulfide 1-10; C-terminus assumed) |
| > 10000 nM | 16% | > 10000 nM | 3% | 10.6 nM | 4.6 nM | 88 nM | CSCC[C@@H]1NC(=O)[C@@H](NC(=O)[C@H](CCCNC(=N)N)NC(C)=O)CSSC[C@@H](C(N)=O)NC(=O)CCCCNC(=O)CCCCNC(=O)[C@H](Cc2ccc(O)cc2)NC(=O)[C@H](C(C)C)NC(=O)[C@H](CCCNC(=N)N)NC(=O)CCCCNC(=O)CCCCNC1=O [SEQ. ID. NO. 30] (Ac-RCM[Ava][Ava]RVY[Ava][Ava]C-NH2; disulfide 2-11 (inferred); C-terminus assumed) |
| > 10000 nM | 7% | > 10000 nM | 3% |  |  | 830 nM | CC[C@@H]1NC(=O)[C@@H](NC(=O)CCCCNC(=N)N)CSSC[C@@H](C(N)=O)NC(=O)CCCCNC(=O)CCCCNC(=O)[C@H](Cc2ccc(O)cc2)NC(=O)[C@H](C(C)C)NC(=O)[C@H](CCCNC(=N)N)NC(=O)CNC(=O)[C@H](CC(C)C)NC1=O [SEQ. ID. NO. 17] ({Pentanoyl(5-guanidino)}-C[Abu]LGRVY[Ava][Ava]C-NH2; disulfide 1-10; C-terminus assumed) |
| > 10000 nM | 32% | > 10000 nM | 3.6% | 6.8 nM | 3 nM | 176 nM | CSCC[C@@H]1NC(=O)[C@@H](NC(=O)CCCCNC(=N)N)CSSC[C@@H](C(N)=O)NC(=O)CCNC(=O)CCNC(=O)[C@H](Cc2ccc(O)cc2)NC(=O)[C@H](C(C)C)NC(=O)[C@H](CCCNC(=N)N)NC(=O)CNC(=O)[C@H](CC(C)C)NC1=O [SEQ. ID. NO. 14] |
| > 10000 nM | 26% | > 10000 nM | 0.1% |  |  | > 1000 nM | CSCC[C@@H]1NC(=O)[C@@H](NC(=O)CCCCNC(=N)N)CSSC[C@@H](C(N)=O)NC(=O)CCCCNC(=O)CCCCNC(=O)[C@H](Cc2ccc(O)cc2)NC(=O)[C@H](C(C)C)NC(=O)[C@H](CCCNC(=N)N)NC(=O)CNC1=O [SEQ. ID. NO. 23] ({Pentanoyl(5-guanidino)}-CMGRVY[Ava][Ava]C-NH2; disulfide 1-9) |
| > 10000 nM | 91% | > 10000 nM | 3% | 5.4 nM | 2.4 nM | 28 nM | CCCC[C@H]1NC(=O)[C@H](CC(C)C)NC(=O)[C@H](CCSC)NC(=O)[C@@H](NC(=O)CCCCNC(=N)N)CSSC[C@@H](C(N)=O)NC(=O)CCCCNC(=O)CCCCNC(=O)[C@H](Cc2ccc(O)cc2)NC(=O)[C@H](C(C)C)NC(=O)[C@H](CCCNC(=N)N)NC1=O [SEQ. ID. NO. 27] ({Pentanoyl(5-guanidino)}-CML[dNle]RVY[Ava][Ava]C-NH2; disulfide 1-10; C-terminus assumed) |

Reference: patent US7335723B2, “Melanin-concentrating hormone antagonists” (priority 2001, dated 2008)
